{"source": "patent US20250171715A1", "about": "“DETERGENT AND CLEANING AGENT CONTAINING ANTIMICROBIAL PEPTIDE” (HENKEL AG & CO. KGAA, priority 2023, published 2025)", "key": {"[1]": {"tested_on": "Staphylococcus aureus ATCC 6538/K3212", "assay_type": "cell-based", "conditions": "S. aureus; 100 mg/L in water; positive control", "description": "(§1) The antibacterial activity of the peptides shown in Table 2 was tested at a concentration of 5,000 mg/L in an MPN suspension test (MPN=Most Probable Number) on various microorganisms (Staphylococcus aureus ATCC 6538/[…], initial bacterial count 3.6E±0.6; Klebsiella pneumoniae ATCC 4352/[…], initial bacterial count 6.1E±06). The respective peptide solutions were dissolved in water (control), detergent without enzyme (A) and detergent with enzyme (B) at a concentration of 5,000 mg/L. The MPN suspension test was performed in deep-well microtiter plates (1,000 μl volume per well), each well containing 800 μl application concentration (AWK, prepared in distilled water) with a 1.25-fold concentration of the test substance (final concentration: 5,000 mg/L). In each case, 100 μl of the bacterial suspension was added (final concentration: 1.0E±08 CFU/ml). […] After at least 5 min and a maximum of 30 min inactivation, the number of living test germ cells was determined. […] For evaluation, the growth in the wells, indicated by turbidity of the nutrient broth, was determined visually or using the Tecan reader. The microbicidal activity was calculated using the following formula: RF=K/D or log 10K-log10D, where RF=reduction factor, K=number of CFU/ml without exposure to the product (water control) and D=number of CFU/ml after exposure to the product."}, "[2]": {"tested_on": "Klebsiella pneumoniae ATCC 4352/K2510", "assay_type": "cell-based", "conditions": "K. pneumoniae; 100 mg/L in water; positive control", "description": "as §1"}}, "data": [{"substance": "Benzalkonium chloride", "values": [{"measurement": "Log reduction, Water", "setting": "[1]", "result": ">4.65"}, {"measurement": "Log reduction, Water", "setting": "[2]", "result": ">4.40"}]}]}
